Experiment [1] concerns the target T1, Human immunodeficiency virus type 1 protease (Human immunodeficiency virus 1, UniProt Q72874). The experiment is described as follows: In vitro inhibition of HIV-1 protease.
The test system of experiment [2] is Human immunodeficiency virus 1. In words: Concentration required to inhibit HIV-1 virus replication by 50% as determined by XTT. Type of experiment: functional. Particulars: read-out: ED50 (the source's name). For orientation: Tetrazolium assays rely on reduction of a dye to a coloured formazan, in cell work by metabolically active cells.
Experiment [3] concerns the target T1, Human immunodeficiency virus type 1 protease. The experiment is described as follows: Inhibition constant against HIV protease was determined.

The values below come from ChEMBL document CHEMBL1150457, “-hydroxyamide derived aminodiols as potent inhibitors of hiv protease” (Bioorg Med Chem Lett, 1995).

In general, IC50 refers to the concentration at which inhibition is half-maximal. Lower therefore signals greater potency in that assay. What is called Ki is a measure of affinity in units of concentration, obtained from inhibition or displacement. Lower therefore signals a stronger hold on the target.

Regarding `CC(C)(C)OC(=O)N[C@@H](Cc1ccccc1)[C@H](O)CNC[C@@H](O)[C@H](Cc1ccccc1)NC(=O)C(C)(C)O`, 450 nM corresponded to half-maximal inhibition in experiment [1] (IC50). In addition, the EC50 in experiment [2] (Human immunodeficiency virus 1) amounted to 970 nM.
Regarding `CC(C)(C)OC(=O)N[C@@H](Cc1ccccc1)[C@H](O)CNC[C@@H](O)[C@H](Cc1ccccc1)NC(=O)C1(O)CCCC1(C)C` (stereo in doubt), the IC50 in experiment [1] worked out at 15 nM. In experiment [2], the EC50 was determined as 30 nM.
With `CC(C)(C)OC(=O)N[C@@H](Cc1ccccc1)[C@H](O)CNC[C@@H](O)[C@H](Cc1ccccc1)NC(=O)[C@](C)(O)C(C)(C)C`, the IC50 in experiment [1] stood at 900 nM. The EC50 in experiment [2] (Human immunodeficiency virus 1) is 1380 nM.
Take `CC(C)(C)OC(=O)N[C@@H](Cc1ccccc1)[C@H](O)CNC[C@@H](O)[C@H](Cc1ccccc1)NC(=O)[C@@](C)(O)c1ccccc1`: the IC50 in experiment [1] was 260 nM. For the same compound, the EC50 in experiment [2] (Human immunodeficiency virus 1) stood at 1350 nM.
For `CC(C)(C)OC(=O)N[C@@H](Cc1ccccc1)[C@H](O)CNC[C@@H](O)[C@H](Cc1ccccc1)NC(=O)[C@H](O)C(C)(C)C`, in experiment [1], the IC50 stood at 50 nM. For the same compound, the EC50 in experiment [2] (Human immunodeficiency virus 1) was found to be 55 nM.
The compound `CC(C)(C)OC(=O)N[C@@H](Cc1ccccc1)[C@H](O)CNC[C@@H](O)[C@H](Cc1ccccc1)NC(=O)C(O)C(F)(F)F` (single isomer, unassigned; isomer A) came in with an IC50 in experiment [1] of 40 nM. Moreover, the EC50 in experiment [2] (Human immunodeficiency virus 1) was found to be 60 nM.
For the compound `CC(C)(C)OC(=O)N[C@@H](Cc1ccccc1)[C@H](O)CNC[C@@H](O)[C@H](Cc1ccccc1)NC(=O)C(O)C(F)(F)F` (stereo in doubt), the midpoint of inhibition in experiment [1], the IC50, lay at 2200 nM.
As to `CC(C)(C)OC(=O)N[C@@H](Cc1ccccc1)[C@H](O)CNC[C@@H](O)[C@H](Cc1ccccc1)NC(=O)[C@@](C)(O)C(C)(C)C`, the IC50 in experiment [1] is 40 nM. This compound yielded a Ki in experiment [3] of 24 nM. In addition, in experiment [2] (Human immunodeficiency virus 1), the EC50 is 60 nM.
`CC(C)(C)OC(=O)N[C@@H](Cc1ccccc1)[C@H](O)CNC[C@@H](O)[C@H](Cc1ccccc1)NC(=O)[C@H](O)c1ccccc1` displayed an IC50 in experiment [1] of 320 nM. Moreover, the EC50 in experiment [2] (Human immunodeficiency virus 1) was determined as 650 nM.
`CC(C)(C)OC(=O)N[C@@H](Cc1ccccc1)[C@H](O)CNC[C@@H](O)[C@H](Cc1ccccc1)NC(=O)C1(O)CCCC1(C)C` (single isomer, unassigned; isomer B) registered an IC50 in experiment [1] of 250 nM. Further, in experiment [2], the EC50 is 375 nM.
In the case of `CC(C)(C)OC(=O)N[C@@H](Cc1ccccc1)[C@H](O)CNC[C@@H](O)[C@H](Cc1ccccc1)NC(=O)C(C)(O)C(C)(C)CO` (stereo in doubt; form 2), in experiment [1], 130 nM corresponded to half-maximal inhibition (IC50). Also, the EC50 in experiment [2] (Human immunodeficiency virus 1) was 160 nM.
In turn, `CC(C)(C)OC(=O)N[C@@H](Cc1ccccc1)[C@H](O)CNC[C@@H](O)[C@H](Cc1ccccc1)NC(=O)C(C)(O)C(C)(C)CO` (stereo in doubt; form 1) yielded an IC50 in experiment [1] of 120 nM. Besides, in experiment [2], the EC50 stood at 110 nM.
Take `CC(C)(C)OC(=O)N[C@@H](Cc1ccccc1)[C@H](O)CNC[C@@H](O)[C@H](Cc1ccccc1)NC(=O)C1(O)COCC1(C)C` (stereo in doubt; form 2): it took 220 nM to reach half-maximal inhibition in experiment [1] (IC50). In addition, the EC50 in experiment [2] (Human immunodeficiency virus 1) is 230 nM.
With `CC(C)(C)OC(=O)N[C@@H](Cc1ccccc1)[C@H](O)CNC[C@@H](O)[C@H](Cc1ccccc1)NC(=O)[C@@H](O)C(C)(C)C`, in experiment [1], the IC50 came out at 1200 nM.
Compound `CC(C)(C)OC(=O)N[C@@H](Cc1ccccc1)[C@H](O)CNC[C@@H](O)[C@H](Cc1ccccc1)NC(=O)C(O)(CO)C(C)(C)C` (single isomer, unassigned; isomer B) showed an IC50 in experiment [1] of 10000 nM.
Regarding `CC(C)(C)OC(=O)N[C@@H](Cc1ccccc1)[C@H](O)CNC[C@@H](O)[C@H](Cc1ccccc1)NC(=O)[C@@H](O)c1ccccc1`, the IC50 in experiment [1] is above 10000 nM.
For `CC(C)(C)OC(=O)N[C@@H](Cc1ccccc1)[C@H](O)CNC[C@@H](O)[C@H](Cc1ccccc1)NC(=O)[C@](C)(O)c1ccccc1`, the IC50 in experiment [1] came to 6500 nM.
In turn, `CC(C)(C)OC(=O)N[C@@H](Cc1ccccc1)[C@H](O)CNC[C@@H](O)[C@H](Cc1ccccc1)NC(=O)C1(O)COCC1(C)C` (stereo in doubt; form 1) showed an IC50 in experiment [1] of 3500 nM.
As to `CC(C)(C)OC(=O)N[C@@H](Cc1ccccc1)[C@H](O)CNC[C@@H](O)[C@H](Cc1ccccc1)NC(=O)C(O)(CO)C(C)(C)C` (stereo in doubt), inhibition in experiment [1] was half-maximal at 60 nM (IC50). Besides, the EC50 in experiment [2] (Human immunodeficiency virus 1) turned out to be 25 nM.
Regarding `CC(C)(C)OC(=O)N[C@@H](Cc1ccccc1)[C@H](O)CNC[C@@H](O)[C@H](Cc1ccccc1)NC(=O)OC(C)(C)C`, the Ki in experiment [3] came out at 100 nM. The EC50 in experiment [2] (Human immunodeficiency virus 1) worked out at 80 nM.
Consider `CC(C)(C)CC(=O)N[C@@H](Cc1ccccc1)[C@H](O)CNC[C@@H](O)[C@H](Cc1ccccc1)NC(=O)OC(C)(C)C`, for which, in experiment [2] (Human immunodeficiency virus 1), the EC50 is 1200 nM.
